Consider 16 compounds from PMC6522510 (Nature Communications, 2019).

Counter-ions that a name gives are not always drawn. Like-named read-outs stand apart in the source and are kept apart here.

Set-up in all cases: species or system AML cell lines (8); Primary HTS, single concentration about 10 uM, Cell Titer Glo viability; log10 luminescence, per cent inhibition relative to cycloheximide control
What all share (settings): 72 h, relative to cycloheximide control, log10 luminescence, inhibitor
A general note: ATP-based viability assays read luminescence as a measure of living cells.

The test system of assay [1] is CMS.
Assay [2] relates to M07e.
The test system of assay [3] is ML-2.
The test system of assay [4] is CMK.
The subject of assay [5] is U937.
In assay [6] the test system is CHRF288-11.
The test system of assay [7] is MOLM-13.
Assay [8] deals with MV4-11.

Regarding `N#Cc1ccc(C(=O)c2cnn(-c3ccc(F)cc3)c2N)cc1` [SJ000580987-1], the CMS %inh in assay [1] was determined as 0.4553%. Moreover, the M07e %inh in assay [2] is reported as -1.432%. The ML-2 %inh in assay [3] is -0.9573%. For the same compound, in assay [4], the CMK %inh is listed as -2.255%. In addition, the U937 %inh in assay [5] was found to be 0.0125%. Besides, the CHRF288-11 %inh in assay [6] is -3.381%. Further, the MOLM-13 %inh in assay [7] was -1.146%. The MV4-11 %inh in assay [8] is listed as -4.232%.

Consider `COc1ccc2nc3cc(Cl)ccc3c(Nc3cc(CN4CCCC4)c(O)c(CN4CCCC4)c3)c2n1` [SJ000518979-1, PYRONARIDINE PHOSPHATE], for which the CMS %inh in assay [1] is recorded as 102.4%. The M07e %inh in assay [2] came to 115%. In addition, the ML-2 %inh in assay [3] is 59.06%. Besides, in assay [4], the CMK %inh is given as 87.35%. The U937 %inh in assay [5] came out at 76.7%. Further, the CHRF288-11 %inh in assay [6] is recorded as 68.68%. Further, the MOLM-13 %inh in assay [7] turned out to be 93.43%. For the same compound, in assay [8], the MV4-11 %inh came to 74.19%.

Regarding `CCNC(=O)[C@@H]1CCCN2C(=O)CC[C@H](NC(=O)[C@H](Cc3ccc(OP(=O)(O)O)cc3)NC(C)=O)C(=O)N12` [SJ000581112-1], the CMS %inh in assay [1] was -0.07964%. Moreover, the M07e %inh in assay [2] is given as 4.13%. The ML-2 %inh in assay [3] is 2.455%. The CMK %inh in assay [4] is on record as 0.5327%. In assay [5], the U937 %inh turned out to be 0.08443%. In addition, the CHRF288-11 %inh in assay [6] was -7.883%. Further, the MOLM-13 %inh in assay [7] is 0.008932%. In addition, the MV4-11 %inh in assay [8] turned out to be 1.373%.

With `O=C1NC(=NCCCc2ccccc2)S/C1=C\c1ccc2ncccc2c1` [SJ000581127-1], in assay [1], the CMS %inh was 4.391%. For the same compound, in assay [2], the M07e %inh was 6.993%. Also, the ML-2 %inh in assay [3] is listed as 2.496%. Further, the CMK %inh in assay [4] stood at 8.234%. The U937 %inh in assay [5] is given as 2.066%. The CHRF288-11 %inh in assay [6] is given as -2.357%. The MOLM-13 %inh in assay [7] came out at 42.49%. The MV4-11 %inh in assay [8] is reported as 18.37%.

Regarding `O=C1NC(=NCCc2ccc(Cl)cc2)S/C1=C\c1ccc2ncccc2c1` [SJ000580969-1], the CMS %inh in assay [1] came out at 0.8596%. In assay [2], the M07e %inh is -1.208%. Further, the ML-2 %inh in assay [3] is given as -0.5014%. Also, in assay [4], the CMK %inh amounted to 0.9453%. Besides, in assay [5], the U937 %inh is recorded as -0.9947%. Moreover, the CHRF288-11 %inh in assay [6] was found to be 2.273%. Besides, in assay [7], the MOLM-13 %inh is on record as 1.832%. Besides, the MV4-11 %inh in assay [8] is recorded as 1.31%.

Regarding `CC(C(=O)O)c1ccc(C(=O)c2cccs2)cc1` (centres unmarked) [SJ000285866-4, SUPROFEN], the CMS %inh in assay [1] was -1.053%. For the same compound, the M07e %inh in assay [2] is recorded as -0.1194%. For the same compound, the ML-2 %inh in assay [3] is recorded as 4.32%. In assay [4], the CMK %inh came to 0.7662%. Further, the U937 %inh in assay [5] amounted to 0.9376%. Moreover, in assay [6], the CHRF288-11 %inh is on record as 0.5358%. Also, in assay [7], the MOLM-13 %inh was determined as 1.517%. Moreover, the MV4-11 %inh in assay [8] was -0.1438%.

Take `Cn1c(=O)c(Oc2ccc(F)cc2F)cc2cnc(NCCS(C)(=O)=O)nc21` [SJ000580964-1]: the CMS %inh in assay [1] is on record as -1.101%. Besides, the M07e %inh in assay [2] is reported as -0.966%. Moreover, the ML-2 %inh in assay [3] was -0.4027%. The CMK %inh in assay [4] is reported as 2.942%. In assay [5], the U937 %inh worked out at 5.046%. In addition, in assay [6], the CHRF288-11 %inh is -0.5727%. Further, the MOLM-13 %inh in assay [7] turned out to be 0.541%. Further, the MV4-11 %inh in assay [8] worked out at 3.561%.

As to `O=C1NC(O)C(c2c[nH]c3ccccc23)=C1c1c[nH]c2ccccc12` (centres unmarked) [SJ000581000-1], the CMS %inh in assay [1] is given as -2.539%. In assay [2], the M07e %inh is reported as -1.63%. Moreover, in assay [3], the ML-2 %inh is -2.056%. In addition, the CMK %inh in assay [4] is listed as -1.548%. Further, in assay [5], the U937 %inh is reported as -0.5983%. Moreover, the CHRF288-11 %inh in assay [6] is 3.04%. The MOLM-13 %inh in assay [7] was -0.2184%. Besides, the MV4-11 %inh in assay [8] amounted to 0.3489%.

As for `CCn1c(-c2nonc2N)nc2c(C#CC(C)(C)O)nc(OCCNC)cc21` [SJ000573313-1, MS205583-134A1], the CMS %inh in assay [1] is on record as 10.14%. The M07e %inh in assay [2] worked out at 22.08%. In addition, in assay [3], the ML-2 %inh is 3.569%. The CMK %inh in assay [4] was found to be 13.56%. The U937 %inh in assay [5] is 64.14%. Moreover, in assay [6], the CHRF288-11 %inh was 6.621%. Moreover, the MOLM-13 %inh in assay [7] amounted to 19.98%. The MV4-11 %inh in assay [8] is reported as 55.12%.

With `CN[C@@H]1[C@H](O[C@H]2[C@H](O[C@H]3[C@H](O)[C@@H](O)[C@H](N=C(N)N)[C@@H](O)[C@@H]3N=C(N)N)O[C@@H](C)[C@]2(O)C=O)O[C@@H](CO)[C@H](O)[C@H]1O` [SJ000285297-5, STREPTOMYCIN SULFATE], the CMS %inh in assay [1] (CMS %inh, 10 µM) is given as -4.665%. Moreover, the M07e %inh in assay [2] (M07e %inh, 10 µM) was 1.975%. The ML-2 %inh in assay [3] (ML-2 %inh, 10 µM) was found to be 1.375%. Also, the CMK %inh in assay [4] (CMK %inh, 10 µM) was -3.106%. Besides, the U937 %inh in assay [5] (U937 %inh, 10 µM) is recorded as -2.931%. Moreover, in assay [6] (CHRF288-11 %inh, 10 µM), the CHRF288-11 %inh is on record as -4.766%. Moreover, in assay [7] (MOLM-13 %inh, 10 µM), the MOLM-13 %inh came to 2.09%. In addition, in assay [8] (MV4-11 %inh, 10 µM), the MV4-11 %inh amounted to 1.701%.

Consider `Cc1cc(Nc2cc(N3CCN(C)CC3)nc(Sc3ccc(NC(=O)C4CC4)cc3)n2)n[nH]1` [SJ000574290-1, TOZASERTIB | VX-680 | MK-0457 | VX6 | VX-680 | TOZASERTIB | MK-0457 | | VX-680 (TOZASERTIB, MK-0457)], for which the CMS %inh in assay [1] was determined as 15.77%. In addition, in assay [2], the M07e %inh amounted to 61.91%. Further, the ML-2 %inh in assay [3] was found to be 25.05%. In assay [4], the CMK %inh worked out at 63.64%. Besides, the U937 %inh in assay [5] is 19.84%. In addition, the CHRF288-11 %inh in assay [6] was determined as 110.2%. For the same compound, in assay [7], the MOLM-13 %inh is reported as 88.48%. Besides, in assay [8], the MV4-11 %inh was found to be 64.96%.

For the compound `CCCCC[C@](C)(O)/C=C/[C@@H]1[C@@H](C/C=C\CCCC(=O)O)[C@@H](O)C[C@H]1O` [SJ000565165-1, CARBOPROST TROMETHAMINE], the CMS %inh in assay [1] is given as 2.5%. Besides, the M07e %inh in assay [2] is listed as -0.103%. The ML-2 %inh in assay [3] is listed as 2.687%. Moreover, the CMK %inh in assay [4] is listed as -7.865%. Moreover, in assay [5], the U937 %inh is on record as -1.422%. The CHRF288-11 %inh in assay [6] stood at 21.89%. For the same compound, the MOLM-13 %inh in assay [7] is recorded as 2.726%. Also, the MV4-11 %inh in assay [8] is reported as 1.156%.

On to `COc1cc(C=NNc2ncnc3c2cnn3-c2ccccc2)ccc1O` [SJ000573226-1, U14681/58/1], for which the CMS %inh in assay [1] stood at 3.107%. In addition, the M07e %inh in assay [2] worked out at 11.87%. In addition, the ML-2 %inh in assay [3] is recorded as -0.2562%. In addition, the CMK %inh in assay [4] was -0.5633%. The U937 %inh in assay [5] came out at 8.322%. Besides, in assay [6], the CHRF288-11 %inh is given as 10.72%. For the same compound, the MOLM-13 %inh in assay [7] is reported as 3.51%. In addition, the MV4-11 %inh in assay [8] stood at 35.25%.

For `CN1CCN(C(=O)c2ccc(NC(=O)Nc3ccc(N(C)c4ccnc(Nc5ccc(CS(C)(=O)=O)cc5)n4)cc3)cc2)CC1` [SJ000573056-1, U17983/92/5], the CMS %inh in assay [1] is -2.808%. Besides, in assay [2], the M07e %inh was -6.05%. In addition, the ML-2 %inh in assay [3] worked out at 10.8%. For the same compound, the CMK %inh in assay [4] was determined as 6.346%. Further, in assay [5], the U937 %inh amounted to 5.393%. Further, the CHRF288-11 %inh in assay [6] is reported as 0.03637%. For the same compound, the MOLM-13 %inh in assay [7] came out at 94.26%. In addition, the MV4-11 %inh in assay [8] stood at 82.16%.

As to `CC(=O)N[C@@H](Cc1ccc(OP(=O)(O)O)cc1)C(=O)N[C@H]1CCC(=O)N2CCC[C@@H](C(=O)NC3CCc4ccccc43)N2C1=O` (some centres unmarked) [SJ000580953-1], the CMS %inh in assay [1] is on record as -2.328%. For the same compound, the M07e %inh in assay [2] was -2.209%. In addition, in assay [3], the ML-2 %inh stood at 0.02578%. The CMK %inh in assay [4] came out at 1.012%. Also, in assay [5], the U937 %inh is recorded as -1.364%. Moreover, in assay [6], the CHRF288-11 %inh came out at 3.338%. In assay [7], the MOLM-13 %inh is reported as 0.9252%. Besides, the MV4-11 %inh in assay [8] is -1.841%.

Consider `O=[N+]([O-])c1ccc(Oc2ccc(Br)cc2)c(C(O)P(=O)(O)O)c1` (single isomer, unassigned) [SJ000312207-3, RWJ-60475], for which the CMS %inh in assay [1] (CMS %inh, 10 µM) is reported as -0.822%. Further, the M07e %inh in assay [2] (M07e %inh, 10 µM) worked out at 1.458%. Moreover, in assay [3] (ML-2 %inh, 10 µM), the ML-2 %inh stood at 4.625%. Further, the CMK %inh in assay [4] (CMK %inh, 10 µM) stood at 2.859%. Besides, the U937 %inh in assay [5] (U937 %inh, 10 µM) was determined as 3.171%. Besides, in assay [6] (CHRF288-11 %inh, 10 µM), the CHRF288-11 %inh is -1.978%. Also, the MOLM-13 %inh in assay [7] (MOLM-13 %inh, 10 µM) came to 10.73%. Moreover, the MV4-11 %inh in assay [8] (MV4-11 %inh, 10 µM) was determined as 2.215%.
